Laboratory results as given in ChEMBL document CHEMBL1201862, “PubChem BioAssay data set” (2004).
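Compound exposure: 48 hours, 5 concentrations, 96-well plates. GI50 = concentration required for 50% inhibition of growth.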 Active and inactive are the calls of the source. Cut-off read from the data, not from the text of the source: active = GI50 up to about 1.1 µM and inactive = higher.

Experiments:
Experiment in all cases: NCI tumour cell line growth inhibition, 48 h
U-251 = system: U-251
EKVX = system: EKVX
NCI-H23 = system: NCI-H23
SW-620 = system: SW-620
SN12C = system: SN12C
KM12 = system: KM12
SK-MEL-28 = system: SK-MEL-28
A549 = system: A549
UO-31 = system: UO-31
BT-549 = system: BT-549
RXF 393 = system: RXF 393
HCT-116 = system: HCT-116
UACC-257 = system: UACC-257
NCI/ADR-RES = system: NCI/ADR-RES
TK-10 = system: TK-10
MDA-MB-435 = system: MDA-MB-435
M14 = system: M14
MDA-MB-231 = system: MDA-MB-231
LOX IMVI = system: LOX IMVI
A498 = system: A498

| Compound | GI50 (U-251) | GI50 (EKVX) | GI50 (NCI-H23) | GI50 (SW-620) | GI50 (SN12C) | GI50 (KM12) | GI50 (SK-MEL-28) | GI50 (A549) | GI50 (UO-31) | GI50 (BT-549) | GI50 (RXF 393) | GI50 (HCT-116) | GI50 (UACC-257) | GI50 (NCI/ADR-RES) | GI50 (TK-10) | GI50 (MDA-MB-435) | GI50 (M14) | GI50 (MDA-MB-231) | GI50 (LOX IMVI) | GI50 (A498) |
| --- | --- | --- | --- | --- | --- | --- | --- | --- | --- | --- | --- | --- | --- | --- | --- | --- | --- | --- | --- | --- |
| Cc1cccc2nc3n(c12)C(=O)c1ccccc1-3 | > 100 µM (inactive) | 91.4 µM (inactive) | > 100 µM (inactive) | > 100 µM (inactive) | > 100 µM (inactive) | > 100 µM (inactive) | > 100 µM (inactive) | > 100 µM (inactive) | > 100 µM (inactive) | > 100 µM (inactive) | > 100 µM (inactive) | > 100 µM (inactive) | > 100 µM (inactive) | > 100 µM (inactive) | > 100 µM (inactive) |  |  |  |  |  |
| O=c1c2ccccc2nc(-c2cc3c(cc2Cl)Sc2nccn2S3(=O)=O)n1-c1ccccc1 | 16.8 µM (inactive) | 21.4 µM (inactive) | 62.5 µM (inactive) | 13.5 µM (inactive) | 45.5 µM (inactive) | 11.1 µM (inactive) | 21.4 µM (inactive) | > 100 µM (inactive) | 16.6 µM (inactive) | 41.1 µM (inactive) | 18.8 µM (inactive) | 14.2 µM (inactive) | 18 µM (inactive) | 19.1 µM (inactive) | 21.5 µM (inactive) | 22.8 µM (inactive) | > 100 µM (inactive) | 18.4 µM (inactive) | 88.7 µM (inactive) |  |
| Nn1c(=S)[nH]nc(/C=C/c2c(O)ccc3ccccc23)c1=O | 8.22 µM (inactive) | 2.75 µM (inactive) | 3.24 µM (inactive) | 4.74 µM (inactive) |  | 6.12 µM (inactive) | 8.95 µM (inactive) | 6.78 µM (inactive) | 6.35 µM (inactive) | 5.43 µM (inactive) |  | 3.32 µM (inactive) | 5.3 µM (inactive) | 3.26 µM (inactive) |  | 13.2 µM (inactive) | 5.71 µM (inactive) |  | 2.48 µM (inactive) | 16.9 µM (inactive) |
| CCn1c(CCl)nc2c1C(=O)c1ccccc1C2=O | 1.71 µM (inactive) | 2.46 µM (inactive) | 1.4 µM (inactive) | 1.33 µM (inactive) | 1.6 µM (inactive) | 1.73 µM (inactive) | 1.76 µM (inactive) | 3.4 µM (inactive) |  | 2.18 µM (inactive) | 1.85 µM (inactive) | 2.13 µM (inactive) | 1.67 µM (inactive) | 2.48 µM (inactive) | 2.51 µM (inactive) | 1.69 µM (inactive) | 1.63 µM (inactive) |  |  |  |
| COc1ccc(/N=c2/oc3ccccc3cc2C(N)=O)cc1 | 33.3 µM (inactive) | > 100 µM (inactive) | 29.8 µM (inactive) | > 100 µM (inactive) | > 100 µM (inactive) | 43.3 µM (inactive) | > 100 µM (inactive) | 42 µM (inactive) | 2.33 µM (inactive) | 32.3 µM (inactive) | 40.5 µM (inactive) | 26 µM (inactive) | > 100 µM (inactive) | 39 µM (inactive) | 22.5 µM (inactive) | 92.5 µM (inactive) | 55.2 µM (inactive) | 30.5 µM (inactive) | 33.7 µM (inactive) |  |
| Clc1c(C(Cl)(Cl)Cl)nsc1N1CCCCC1 | 23.5 µM (inactive) | 29.9 µM (inactive) | 14 µM (inactive) | 32.4 µM (inactive) | 28 µM (inactive) | 20.7 µM (inactive) | 33 µM (inactive) | 33.9 µM (inactive) | 11.4 µM (inactive) | 18.3 µM (inactive) | 16.8 µM (inactive) | 24.3 µM (inactive) | 23.3 µM (inactive) |  | 31.6 µM (inactive) | 20.9 µM (inactive) | 21 µM (inactive) | 23.8 µM (inactive) | 16.2 µM (inactive) | 20 µM (inactive) |
| O=C(Cn1c2ccc(Br)cc2c2nc3ccccc3nc21)NNC(=O)NC1CCCCC1 | 30.1 µM (inactive) | 65.8 µM (inactive) | 61.4 µM (inactive) | 33 µM (inactive) | 52.8 µM (inactive) | 37.4 µM (inactive) | 45.2 µM (inactive) | 18.3 µM (inactive) | 2.52 µM (inactive) | > 100 µM (inactive) | 78.2 µM (inactive) | 57.3 µM (inactive) | 98.9 µM (inactive) |  | 42.8 µM (inactive) | 32.7 µM (inactive) | 40.3 µM (inactive) | 30.1 µM (inactive) | 41.4 µM (inactive) | > 100 µM (inactive) |
| O=C1C=CN(C2OC(CO)C(O)C2O)C(=O)C1 (stereo not given) |  | > 2500 µM (inactive) |  | 32.5 µM (inactive) | 10 µM (inactive) |  |  | 17.8 µM (inactive) | 29.7 µM (inactive) | > 2500 µM (inactive) | 372 µM (inactive) | 1.51 µM (inactive) | 1130 µM (inactive) |  | 2210 µM (inactive) | 161 µM (inactive) | 231 µM (inactive) | 363 µM (inactive) | 12 µM (inactive) | 867 µM (inactive) |
| CCOc1cc2c(=O)oc3c(OC)ccc4ccc(c1OC)c2c43 | 34.5 µM (inactive) | > 100 µM (inactive) | 73.5 µM (inactive) | > 100 µM (inactive) | > 100 µM (inactive) | > 100 µM (inactive) | > 100 µM (inactive) | 28.5 µM (inactive) | > 100 µM (inactive) |  | 52.7 µM (inactive) | 6.64 µM (inactive) | > 100 µM (inactive) | 36.2 µM (inactive) | > 100 µM (inactive) | > 100 µM (inactive) | 45.3 µM (inactive) | 14.5 µM (inactive) | > 100 µM (inactive) | > 100 µM (inactive) |
| CCCCCCCCCCCCCCCCCC(=O)OCC(COC1OC(CS(=O)(=O)O)C(O)C(O)C1O)OC(=O)CCCCCCCCCCCCCCCCC (stereo not given) | > 100 µM (inactive) | > 100 µM (inactive) | > 100 µM (inactive) | > 100 µM (inactive) | > 100 µM (inactive) | > 100 µM (inactive) | > 100 µM (inactive) | > 100 µM (inactive) |  |  | > 100 µM (inactive) | > 100 µM (inactive) | > 100 µM (inactive) | > 100 µM (inactive) | > 100 µM (inactive) | > 100 µM (inactive) | > 100 µM (inactive) | > 100 µM (inactive) | > 100 µM (inactive) | > 100 µM (inactive) |
| C=C[C@]1(C)CC(O)C2C(=C)C(=O)OC2[C@H]1C(=C)C=O (stereo not given in full) | 9.04 µM (inactive) | 15 µM (inactive) | 2.68 µM (inactive) | 1.44 µM (inactive) | 2.37 µM (inactive) | 2.17 µM (inactive) | 1.3 µM (inactive) | 18.4 µM (inactive) | 6.37 µM (inactive) | 3.27 µM (inactive) | 2.07 µM (inactive) | 1.64 µM (inactive) | 1.57 µM (inactive) |  | 3.94 µM (inactive) |  | 2.08 µM (inactive) | 3.1 µM (inactive) | 1.01 µM (active) | 4.42 µM (inactive) |
| COc1cc2c(c(OC)c1)[C@H](C)N(Cc1ccccc1)C(C)C2 (stereo not given in full) |  | > 100 µM (inactive) | 95.3 µM (inactive) | 28.9 µM (inactive) | 35.2 µM (inactive) | 30.2 µM (inactive) | 30.5 µM (inactive) | 43.5 µM (inactive) | 54.2 µM (inactive) | 61.8 µM (inactive) |  | 14.7 µM (inactive) | 67.8 µM (inactive) |  | 37.2 µM (inactive) | 16.3 µM (inactive) | 17.7 µM (inactive) | 36.3 µM (inactive) | 30.1 µM (inactive) | > 100 µM (inactive) |
